Assay results from US12612410B2 (CHILDREN'S HOSPITAL MEDICAL CENTER, priority 2020, dated 2026).
Positions count from the first letter of the chain named.

Key:
[1] = target: T1, FLT3 N841I (Homo sapiens, UniProt P36888, N841I); test: DiscoverX KINOMEscan competition binding, FLT3 N841I
T1 construct: host or cells: E. coli BL21-derived host (T7 phage) or HEK-293
T1 sequence (P36888 27-993 N841I): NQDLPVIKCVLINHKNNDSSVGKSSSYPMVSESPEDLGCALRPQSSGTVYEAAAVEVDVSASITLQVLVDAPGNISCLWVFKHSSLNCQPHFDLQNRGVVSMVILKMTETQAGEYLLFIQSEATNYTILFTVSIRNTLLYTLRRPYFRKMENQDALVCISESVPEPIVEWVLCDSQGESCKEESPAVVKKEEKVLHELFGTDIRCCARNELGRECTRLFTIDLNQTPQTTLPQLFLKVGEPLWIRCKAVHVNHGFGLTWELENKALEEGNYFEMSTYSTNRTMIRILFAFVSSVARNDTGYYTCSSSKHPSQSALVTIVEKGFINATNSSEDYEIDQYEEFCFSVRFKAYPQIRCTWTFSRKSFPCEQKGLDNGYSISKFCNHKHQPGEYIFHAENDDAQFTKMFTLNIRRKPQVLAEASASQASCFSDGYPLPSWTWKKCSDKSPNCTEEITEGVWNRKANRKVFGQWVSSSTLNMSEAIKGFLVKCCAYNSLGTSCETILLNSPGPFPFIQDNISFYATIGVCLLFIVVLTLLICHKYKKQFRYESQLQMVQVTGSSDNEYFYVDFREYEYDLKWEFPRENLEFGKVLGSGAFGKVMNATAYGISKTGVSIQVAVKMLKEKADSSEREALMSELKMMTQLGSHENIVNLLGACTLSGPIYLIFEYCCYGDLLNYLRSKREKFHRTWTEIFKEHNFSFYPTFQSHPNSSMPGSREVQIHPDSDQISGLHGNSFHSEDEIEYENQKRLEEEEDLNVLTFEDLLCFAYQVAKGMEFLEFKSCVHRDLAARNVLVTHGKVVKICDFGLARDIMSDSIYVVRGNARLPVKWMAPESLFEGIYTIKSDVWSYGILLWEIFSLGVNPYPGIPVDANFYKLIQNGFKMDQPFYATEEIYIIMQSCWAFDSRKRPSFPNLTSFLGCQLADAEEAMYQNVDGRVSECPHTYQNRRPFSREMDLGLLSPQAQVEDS
From the text: (§1) Kinase binding data were obtained for various exemplary compounds prepared according to Examples 1-24 using the DiscoverX KINOMVIEscan® active site-directed competition binding site-directed assay protocol described below. […] As a result, the data report thermodynamic interaction affinities (Kd values), rather than IC50 values that are dependent on ATP concentrations. The assay uses a DNA-tagged version of the protein kinase, and an immobilized ligand bound to a solid support. Compounds that directly or indirectly prevent kinase binding to the immobilized ligand reduce the amount of kinase captured on the solid support, which is detected using an ultra-sensitive qPCR method. Affinity constants reported from the assay have been reported to be independent of the immobilized ligand used that is coupled to the solid support (See supplemental information in Fabian, M. A. et. al., (2005) Nat. Biotechnol. 23, 329-336; Wodicka, L. M. et. al., (2010) Chem. Biol. 17, 1241-1249.)
(§2) Kinase-tagged T7 phage strains were prepared in an E. coli host derived from the BL21 strain. E. coli were grown to log-phase and infected with T7 phage and incubated with shaking at 32° C. until lysis. The lysates were centrifuged and filtered to remove cell debris. The remaining kinases were produced in HEK-293 cells and subsequently tagged with DNA for qPCR detection. Streptavidin-coated magnetic beads were treated with biotinylated small molecule ligands for 30 minutes at room temperature to generate affinity resins for kinase assays. The liganded beads were blocked with excess biotin and washed with blocking buffer (SeaBlock (Pierce), 1% BSA, 0.05% Tween 20, 1 mM DTT) to remove unbound ligand and to reduce non-specific binding. Binding reactions were assembled by combining kinases, liganded affinity beads, and test compounds in 1× binding buffer (20% SeaBlock, 0.17×PBS, 0.05% Tween 20, 6 mM DTT). Test compounds were prepared as 111× stocks in 100% DMSO. Kds were determined using an 11-point 3-fold compound dilution series with three DMSO control points. All compounds for Kd measurements are distributed by acoustic transfer (non-contact dispensing) in 100% DMSO. The compounds were then diluted directly into the assays such that the final concentration of DMSO was 0.9%. All reactions were performed in polypropylene 384-well plates. Each was a final volume of 0.02 mL. The assay plates were incubated at room temperature with shaking for 1 hour and the affinity beads were washed with wash buffer (1×PBS, 0.05% Tween 20). The beads were then re-suspended in elution buffer (1×PBS, 0.05% Tween 20, 0.5 μM nonbiotinylated affinity ligand) and incubated at room temperature with shaking for 30 minutes. The kinase concentration in the eluates was measured by qPCR.
(§3) Binding constants (Kds) were calculated with a standard dose-response curve using the Hill equation. The Hill Slope was set to −1. Curves were fitted using a non-linear least square fit with the Levenberg-Marquardt algorithm.

[2] = target: T2, FLT3 D835V (Homo sapiens, UniProt P36888, D835V); test: DiscoverX KINOMEscan competition binding, FLT3 D835V
T2 construct: host or cells: E. coli BL21-derived host (T7 phage) or HEK-293
T2 sequence (P36888 27-993 D835V): T1 sequence (P36888 27-993 N841I) with D809V, I815N
From the text: as §1, §2, §3

Kd [1]	Kd [2]	Compound
0.29 nM	0.083 nM	FC(F)(F)C1(c2cn3c(-c4cccc(N[C@@H]5CCNC5)n4)cnc3cn2)CC1 [Compound 10, (R)-N-(pyrrolidin-3-yl)-6-(6-(1-(trifluoromethyl)cyclopropyl)imidazo[1,2-a]pyrazin-3-yl)pyridin-2-amine]
0.52 nM	0.12 nM	FC(F)(F)COc1cn2c(-c3cccc(N[C@@H]4CCNC4)n3)cnc2cn1 [Compound 38, (R)-N-(pyrrolidin-3-yl)-6-(6-(2,2,2-trifluoroethoxy)imidazo[1,2-a]pyrazin-3-yl)pyridin-2-amine]
0.12 nM	0.015 nM	CC1(c2cn3c(-c4cccc(N[C@H]5CNC[C@@H]5F)n4)cnc3cn2)CC1 [Compound 1, N-((3S,4S)-4-fluoropyrrolidin-3-yl)-6-(6-(1-methylcyclopropyl)imidazo[1,2-a]pyrazin-3-yl)pyridin-2-amine]
2.1 nM	0.17 nM	CC(C)(O)c1cn2c(-c3cccc(N[C@H]4CNCC[C@@H]4F)n3)cnc2cn1 [Compound 31, 2-(3-(6-(((3S,4S)-4-fluoropiperidin-3-yl)amino)pyridin-2-yl)imidazo[1,2-a]pyrazin-6-yl)propan-2-ol]
0.65 nM	0.066 nM	FC(F)c1cn2c(-c3cccc(N[C@H]4CNC[C@@H]4F)n3)cnc2cn1 [Compound 16, 6-(6-(difluoromethyl)imidazo[1,2-a]pyrazin-3-yl)-N-((3S,4S)-4-fluoropyrrolidin-3-yl)pyridin-2-amine]
0.25 nM	0.015 nM	F[C@H]1CNC[C@@H]1Nc1cccc(-c2cnc3cnc(C4CC4)cn23)n1 [Compound 50, 6-(6-cyclopropylimidazo[1,2-a]pyrazin-3-yl)-N-((3S,4S)-4-fluoropyrrolidin-3-yl)pyridin-2-amine]
0.27 nM	0.036 nM	FC(F)c1cn2c(-c3cccc(N[C@H]4CNCC[C@@H]4F)n3)cnc2cn1 [Compound 25, 6-(6-(difluoromethyl)imidazo[1,2-a]pyrazin-3-yl)-N-((3S,4S)-4-fluoropiperidin-3-yl)pyridin-2-amine]
0.091 nM	0.013 nM	CC1(c2cn3c(-c4cccc(N[C@H]5CNCC56CC6)n4)cnc3cn2)CC1 [Compound 5, (R)-N-(6-(6-(1-methylcyclopropyl)imidazo[1,2-a]pyrazin-3-yl)pyridin-2-yl)-5-azaspiro[2.4]heptan-7-amine]
0.12 nM	0.023 nM	CC1(c2cn3c(-c4cccc(N[C@@H]5CCNC5)n4)cnc3cn2)CC1 [Compound 3, (R)-6-(6-(1-methylcyclopropyl)imidazo[1,2-a]pyrazin-3-yl)-N-(pyrrolidin-3-yl)pyridin-2-amine]
0.24 nM	0.011 nM	Cn1cc(-c2cn3c(-c4cccc(N[C@H]5CNC[C@@H]5F)n4)cnc3cn2)cn1 [Compound 52, N-((3S,4S)-4-fluoropyrrolidin-3-yl)-6-(6-(1-methyl-1H-pyrazol-4-yl)imidazo[1,2-a]pyrazin-3-yl)pyridin-2-amine]
3.5 nM	0.36 nM	CC(C)(O)c1cn2c(-c3cccc(N[C@@H]4CCCNC4)n3)cnc2cn1 [Compound 30, (R)-2-(3-(6-(piperidin-3-ylamino)pyridin-2-yl)imidazo[1,2-a]pyrazin-6-yl)propan-2-ol]
